Several values for one entry are separate records, joined by “and”; a condition that tells them apart may be missing. Equal entries are not always repeated. Where two headings read alike, the source gives them in different places.
Experiments:
[1] = system: testosterone-induced benign prostatic hyperplasia; type: in vivo, male Wistar rats; conditions: BPH rats; for Ratio (b/a* 100): prostate weight/body weight
Protocol: (§1) After 6-week-old male Wistar rats (Samtako, Korea) were obtained and acclimated for one week, six animals constituted each test group when each animal weighed 340-350 g.
(§2) As for the test configuration, the animals were divided into groups without testicle removal and groups undergoing […] recovery after testicle removal, and each group was subcutaneously injected with 5 mg/kg testosterone to induce benign prostatic hyperplasia for weeks (BPH induced group). Test groups were constructed by oral administration of Aucklandiae Radix extracts and costunolide at different concentrations (mg/kg) once a day, seven times a week, for 8 weeks.
After the completion of the test, the rats of all the test groups were euthanized, and then prostate tissue and main organs were extracted, and weights and volumes thereof were measured using an electronic scale for animal weights and a caliper (mm^3) (Table 2).

RAW 264.7 cells [2] = experiment: Nitric oxide (NO) change in LPS-activated macrophages (Griess reagent); type: cell-based; conditions: 200 ng LPS, various concentrations, 18 hours, vs LPS alone; dose-dependent (FIG. 1)
Protocol: (§3) RAW 264.7 cells, which were macrophages used in the present tests, were available from American Type Culture Collection (ATCC). These cells were cultured in CO2 incubator (Formascientific, Inc.) using DMEM containing 10% fetal bovine serum (FBS). The differentiation of cells was observed through microscopic observation, and then the cells were used in the tests.
To induce the activation of macrophages, RAW 264.7 cells were treated with 200 ng/ ? lipopolysaccharide (LPS) while simultaneously treated with various concentrations (μg/ ? ) of a 100% methanol extract of Aucklandiae Radix (expressed by MeOH 100%), a 30% ethanol extract of Aucklandiae Radix (expressed by EtOH 30%), and a 70% ethanol extract of Aucklandiae Radix (expressed by EtOH 70%), and costunolide, and then the cells were cultured in a 37° C., 5% CO2 incubator for 18 hours. After 18 hours, 100 ? of the supernatant was transferred to a new plate for each group, and 100 ? of a solution, in which Griess reagent A (2% sulfanilamide in 5% phosphoric acid) and Greiss reagent B (0.2% naphthylethylenediamine dihydrochloride) were mixed at a rate of 1:1, was added thereto. Thereafter, the absorbance was measured at 540 nm.

RAW 264.7 cells [3] = experiment: Inflammatory cytokine (IL-1β, IL-6, TNF-α) levels by ELISA in LPS-activated macrophages; type: cell-based; conditions: 200 ng LPS, various concentrations, 18 hours, vs cells treated with only LPS (FIG. 2)
Protocol: as §3
RAW 264.7 cells were treated with 200 ng/ ? LPS while simultaneously treated with various concentrations (μg/ ? ) of Aucklandiae Radix extracts (EtOH 30% and 70%) and costunolide, and then the cells were cultured in a 37° C., 5% CO2 incubator for 18 hours. After 18 hours, ELISA analysis kits (eBioScience 88-7013, 88-7064 USA, BD 555268 USA) were used to check the levels of the inflammatory cytokines IL-1β, IL-6, and TNF-α in the supernatant of each group.

[4] = type: in vivo, male Wistar rats
Protocol: as §1
as §2, with “weeks. Positive control groups were used by oral administration of finasteride, which has been used as a medicine for benign prostatic hyperplasia.” for “weeks.”
For analysis of biochemical markers in serum, blood was obtained through the abdominal vein from rats of all the groups at necropsy. The blood was coagulated for about 30 minutes, and then centrifuged for 5 minutes at 10,000 rpm to separate serum. After serum separation, a biochemistry analyzer (AU480, Beckman Coulter, USA) was used to check liver function (AST, ALP), lipoprotein (total cholesterol (T-CHO)), HDL cholesterol (HDL-C), LDL cholesterol (LDL-C)), and kidney function ([…]) levels (Table 3).

prostate tissue = experiment: Prostate pathology biopsy (H&E) in BPH model rats; type: in vivo, male Wistar rats; conditions: oral once a day, 8 weeks
Protocol: as §1
as §2, with “weeks. Positive control groups were used by oral administration of finasteride, which has been used as a medicine for benign prostatic hyperplasia.” for “weeks.”
After the completion of the test, the prostate tissue extracted from each group was fixed with 10% neutral formalin and stored. The tissue of each group was processed into paraffin blocks, and slides for microscopic inspection of tissue were manufactured and stained with hematoxylin & eosin (H&E). The microscopic inspection of tissue was conducted through a microscope (Olympus, Tokyo, Japan) at a magnification of X200.

[5] = positive control group, oral, dose not given
[6] = oral 0.075 mg/kg once a day, 8 weeks

With `CC(C)(C)NC(=O)[C@H]1CC[C@H]2[C@@H]3CC[C@H]4NC(=O)C=C[C@]4(C)[C@H]3CC[C@]12C` [Fina, finasteride] the “Body Weight (a)” value [1, 5] was 379 g and 415 g, the “Prostate Weight (b)” value [1, 5] was 1.23 g and 1.42 g and the Prostate volume [1, 5] was 2,322 mm^3 and 4,255 mm^3. The Speen weight [1, 5] was 0.60 g and 0.70 g and the “Ratio (b/a* 100)” value [1, 5] was 0.29 and 0.34.

With `C=C1C(=O)O[C@@H]2/C=C(\C)CC/C=C(\C)CC[C@@H]12` [costunolide] the “amount of NO” value (RAW 264.7 cells [2]) was “significantly decreased”, the “secretion levels of the inflammatory cytokines (IL-1β, IL-6, TNF-α)” value (RAW 264.7 cells [3]) was “decreases” and the “prostate weights and volumes” value ([1]; costunolide administration groups, printed as 0.075 μg/, compared with finasteride administration groups (FIG. 3)) was “significant reduction effect”. The “Body Weight (a)” value [1, 6] was 433 g, the Liver weight [1, 6] was 10.72 g and the “Prostate Weight (b)” value [1, 6] was 1.40 g. The Prostate volume [1, 6] was 4,126 mm^3, the Speen weight [1, 6] was 0.62 g and the “Ratio (b/a* 100)” value [1, 6] was 0.32. The “serum liver function, lipoprotein and kidney function levels (hepatoxicity and kidney toxicity)” value ([4]; BPH rats, oral once a day, 8 weeks, all administered groups) was “no significant changes”, the ALP ([4]; rat, in vivo, po, 0.075 mg/kg) was 61.17 U/L and the AST ([4]; rat, in vivo, po, 0.075 mg/kg) was 78.33 U/L. For the same compound, the CRE ([4]; rat, in vivo, po, 0.075 mg/kg) was 0.27 mg/dL, the HDL ([4]; rat, in vivo, po, 0.075 mg/kg) was 51.50 mg/dL and the LDL ([4]; rat, in vivo, po, 0.075 mg/kg) was 13.17 mg/dL. The T-CHO ([4]; rat, in vivo, po, 0.075 mg/kg) was 79.67 mg/dL, the “endothelial thicknesses of prostate tissue (H&E, X200)” value (prostate tissue; compared with the benign prostatic hyperplasia induced group (FIGS. 4 and 5)) was “significantly reduced” and the “alveolar glands of prostate tissue (H&E, X200)” value (prostate tissue; similar to the normal control group (FIGS. 4 and 5)) was “maintained in a round shape without atrophy”.
